The structures appear in SMILES notation.

The subject of this assay is arachidonic acid induced inflammatory response. In words: arachidonic acid induced mouse ear inflammatory oedema test (mouse ear inflammatory model), oral dosing. Type of assay: in vivo. The settings on record: for inhibition in vivo at 10 mg/kg / inhibition in vivo at 3 mg/kg / inhibition in vivo at 1 mg/kg / inhibition in vivo at 30 mg/kg: Mus musculus, po; for inhibition (anti-inflammatory effect of the CO inhibitors): CO inhibitor alone at 1-10 mg/kg orally. On the procedure:
According to the test method, groups of 10 mice (25-30 g each) were dosed orally with vehicle alone (a mixture of 0.5% hydroxypropylmethylcellulose, 0.1% polysorbate 80 and water), with the 5-LO inhibitor alone, with a CO-inhibitor alone, or with a combination of 5-LO and CO inhibitors. After a period of 1 hour arachidonic acid (1 mg in 10 microlitres of acetone) was applied topically to one ear of each mouse. After a further period of 1 hour the mice were killed and a disc-shaped portion (6 mm in diameter) was punched from each ear. Comparison of the weights of the ear-discs between the arachidonic acid treated and untreated ears allows the effect of each treatment to be determined. The effect of each test compound or combination of compounds is calculated as follows ('ear weight diff.' means the mean difference in the weights of the disc-shaped portions of ear punched from the arachidonic acid-treated ear compared to the untreated ear for each mouse):- [table]

Setting [1] is: summary of Examples 1 to 10, variable.

As usually defined, the inhibition in vivo is the change of the read-out against control, counted positive when it falls. For the compound `COc1ccc2c(c1)c(CC(=O)O)c(C)n2C(=O)c1ccc(Cl)cc1` [I, indomethacin, reference compound], the inhibition in vivo at 10 mg/kg (Ex 1, I 10 mg/kg orally alone ([1] 0 mg/kg)) amounted to 16.9%; the inhibition in vivo at 10 mg/kg (Ex 2, I 10 mg/kg orally alone ([1] 0 mg/kg)) turned out to be 27.4%; the inhibition in vivo at 10 mg/kg (Ex 4, I 10 mg/kg orally alone) was 55.3%; the inhibition in vivo at 10 mg/kg (Ex 5, I 10 mg/kg orally alone) was found to be 55.6%; the inhibition in vivo at 10 mg/kg (Ex 11, I 10 mg/kg orally alone ([2] 0 mg/kg)) turned out to be 30%; the inhibition in vivo at 10 mg/kg (Ex 12, I 10 mg/kg orally alone) came out at 33%. The inhibition in vivo at 10 mg/kg runs as follows: (Ex 13, I 10 mg/kg orally alone ([3] 0 mg/kg), asterisk (*): not statistically significant) 10%; (Ex 14, I 10 mg/kg orally alone ([4] 0 mg/kg), asterisk (*): not statistically significant) -2.5%; (Ex 15, I 10 mg/kg orally alone ([5] 0 mg/kg)) 27%. Also, the inhibition in vivo at 3 mg/kg is, setting by setting: (Ex 3, I 3 mg/kg orally alone ([1] 0 mg/kg)) 12.8%; (Ex 4, I 3 mg/kg orally alone) 15.3%; (Ex 5, I 3 mg/kg orally alone) 18.2%; (Ex 12, I 3 mg/kg orally alone) 27%. Further, the inhibition in vivo at 1 mg/kg (Ex 12, I 1 mg/kg orally alone) was determined as 13%. The “inhibition (anti-inflammatory effect of the CO inhibitors)” value under setting [1] is given as 0 to 55%.
For the compound `COC1(c2cc(F)cc(Sc3ccc(C(F)(F)c4ccc(F)cc4)cc3)c2)CCOCC1` [[5], 4-[5-fluoro-3-(4-(4-fluoro-alpha,alpha-difluorobenzyl)phenylthio)phenyl]-4-methoxytetrahydropyran], the inhibition in vivo at 3 mg/kg (Ex 15, [5] 3 mg/kg orally alone, asterisk (*): not statistically significant) came out at 11%. In addition, under “Ex 15, [5] 10 mg/kg orally alone, asterisk (*): not statistically significant”, the inhibition in vivo at 10 mg/kg was determined as 16%. The inhibition in vivo at 30 mg/kg (Ex 15, [5] 30 mg/kg orally alone, asterisk (*): not statistically significant) came out at 17%.
For `COC1(c2cc(F)cc(Sc3ccc4c(c3)OCC(=O)N4C)c2)CCOCC1` [[2], 4-[5-fluoro-3-(4-methyl-3-oxo-2,3-dihydro-4H-1,4-benzoxazin-7-ylthio)phenyl]-4-methoxytetrahydropyran], where the note is “Ex 11, [2] 3 mg/kg orally alone”, the inhibition in vivo at 3 mg/kg is 15%. Also, for the setting “Ex 11, [2] 10 mg/kg orally alone”, the inhibition in vivo at 10 mg/kg was found to be 22%. The inhibition in vivo at 30 mg/kg reads like this: (Ex 11, [2] 30 mg/kg orally alone) 34%; (Ex 12, [2] 30 mg/kg orally alone (I 0 mg/kg)) 27%.
Regarding `O=C(O)Cc1ccccc1Nc1c(Cl)cccc1Cl` [D, diclofenac, reference compound], the inhibition in vivo at 3 mg/kg runs as follows: (Ex 8, D 3 mg/kg orally alone) 11.1%; (Ex 9, D 3 mg/kg orally alone) 5.9%. Further, the inhibition in vivo at 30 mg/kg (Ex 8, D 30 mg/kg orally alone) turned out to be 11.4%; the inhibition in vivo at 30 mg/kg (Ex 9, D 30 mg/kg orally alone) worked out at 17.8%; the inhibition in vivo at 30 mg/kg (Ex 10, D 30 mg/kg orally alone) worked out at 10.5%. The inhibition in vivo at 10 mg/kg (Ex 9, D 10 mg/kg orally alone) turned out to be 4.9% and the inhibition in vivo at 10 mg/kg (Ex 10, D 10 mg/kg orally alone) amounted to 7.4%. Also, the “inhibition (anti-inflammatory effect of the CO inhibitors)” value under setting [1] lay in the range of 0 to 55%.
For `CC(C(=O)O)c1ccc(-c2ccccc2)c(F)c1` (stereo not shown) [F, flurbiprofen, reference compound], the inhibition in vivo at 3 mg/kg (Ex 6, F 3 mg/kg orally alone ([1] 0 mg/kg)) was 14.6% and the inhibition in vivo at 3 mg/kg (Ex 7, F 3 mg/kg orally alone ([1] 0 mg/kg)) is 7.6%. In addition, the “inhibition (anti-inflammatory effect of the CO inhibitors)” value under setting [1] was 0 to 55%.
As to `COC1(c2ccc(Sc3ccc4c(c3)CCC(=O)N4C)s2)CCOCC1` [[3], 4-methoxy-4-[5-(1-methyl-2-oxo-1,2,3,4-tetrahydroquinolin-6-ylthio)thien-2-yl]tetrahydropyran], for the setting “Ex 13, [3] 3 mg/kg orally alone, asterisk (*): not statistically significant”, the inhibition in vivo at 3 mg/kg stood at 17%. Further, the inhibition in vivo at 10 mg/kg (Ex 13, [3] 10 mg/kg orally alone) is 15%. For the same compound, for the setting “Ex 13, [3] 30 mg/kg orally alone, asterisk (*): not statistically significant”, the inhibition in vivo at 30 mg/kg stood at 20%.
Take `COC1(c2cc(F)cc(Sc3ccc4c(c3)CCC(=O)N4C)c2)CCOCC1` [[4], 4-[5-fluoro-3-(1-methyl-2-oxo-1,2,3,4-tetrahydroquinolin-6-ylthio)phenyl]-4-methoxytetrahydropyran]: for the setting “Ex 14, [4] 3 mg/kg orally alone, asterisk (*): not statistically significant”, the inhibition in vivo at 3 mg/kg came out at 5%. Moreover, for the setting “Ex 14, [4] 10 mg/kg orally alone”, the inhibition in vivo at 10 mg/kg was 21%. Also, the inhibition in vivo at 30 mg/kg (Ex 14, [4] 30 mg/kg orally alone) was 22%.
In the case of `COC1(c2cc(F)cc(OCc3ccc4c(ccc(=O)n4C)c3)c2)CCOCC1` [[1], 6-[(3-fluoro-5-[4-methoxy-3,4,5,6-tetrahydro-2H-pyran-4-yl]phenoxy)methyl]-1-methyl-2-quinolone], the inhibition in vivo at 1 mg/kg is, setting by setting: (Ex 1, [1] 1 mg/kg orally alone) 14.6%; (Ex 6, [1] 1 mg/kg orally alone) 16.7%; (Ex 7, [1] 1 mg/kg orally alone) 16.2%. Further, the inhibition in vivo at 3 mg/kg stood at 19.1% (Ex 1, [1] 3 mg/kg orally alone); 9.5% (Ex 2, [1] 3 mg/kg orally alone); 0% (Ex 3, [1] 3 mg/kg orally alone); 20.8% (Ex 6, [1] 3 mg/kg orally alone); 13.3% (Ex 7, [1] 3 mg/kg orally alone). The inhibition in vivo at 10 mg/kg reads like this: (Ex 1, [1] 10 mg/kg orally alone) 47.2%; (Ex 2, [1] 10 mg/kg orally alone) 0.5%; (Ex 3, [1] 10 mg/kg orally alone) 15.6%; (Ex 4, [1] 10 mg/kg orally alone (I 0 mg/kg)) 44.4%; (Ex 5, [1] 10 mg/kg orally alone (I 0 mg/kg)) 15.2%; (Ex 6, [1] 10 mg/kg orally alone) 15.6%. For the same compound, the inhibition in vivo at 10 mg/kg is, setting by setting: (Ex 7, [1] 10 mg/kg orally alone) 11.4%; (Ex 8, [1] 10 mg/kg orally alone (D 0 mg/kg)) 12.5%; (Ex 9, [1] 10 mg/kg orally alone (D 0 mg/kg)) 25.7%; (Ex 10, [1] 10 mg/kg orally alone (D 0 mg/kg)) 3.2%. In addition, the “inhibition (anti-inflammatory effect of the 5-LO inhibitor)” value (summary of Examples 1 to 10, 5-LO inhibitor alone at 1-10 mg/kg orally, variable) fell in the range of 0 to 47%.

Source of the values: patent EP0485111A2, “The use of lipoxygenase and cyclooxygenase inhibitors as synergistic agents” (ZENECA LIMITED, priority 1990, dated 1992).
